This test concerns B-16a-Zellen. Nature of the test: DNA synthesis by 3H-thymidine uptake in B-16a cells in vitro. It is filed as cell-based, Mäuse. The following applies: 0,1, 1,0, 10 and 25 µg/ml, 4 h and 18 h, Fig. 1, relative to control = 100 %. An excerpt: Die antineoplastische Wirksamkeit wurde in vitro durch Messung der DNS-Synthese sowohl von B-16a- als auch von Lewis-Lungenkarzinom-Zellen durch eine Methode gemessen, der die Thymidin-Aufnahme zugrundeliegt. Zellen, die in Vorbereitung der Zellteilung DNS synthetisieren, sind durch ihre Fähigkeit gekennzeichnet, Thymidin aufzunehmen. Demnach ist die Zell-Proliferation mit der DNS-Synthese verbunden. Wenn die Menge der durch die Tumorzellen synthetisierten DNS vermindert wird, so ist das ein Anzeichen dafür, daß die Zellteilung und damit das Tumorwachstum gehemmt worden ist.
B-16a- und Lewis-Lungenkarzinom-Zellen wurden wie vor- stehend beschrieben erhalten. Die dispergierten Zellen wurden in sterilen 25 ml-Erlenmeyer-Kolben aus Kunststoff auf eine Konzentration von 1 x 10^5 Zellen/ml in MEM verdünnt. Tritium-markiertes Thymidin (^3H) mit einer spezifischen Aktivität von […] (50-80 Ci/mmol) wurde mit […] (2 µCi/ml) zu jedem ml der Zellsuspension hinzugefügt.
Zu einer Reihe von Kolben, die die B-16 - und Lewis-Lungenkarzinom-Zellen enthielten, wurde die Pyrazolon-Verbindung in Mengen von 0,1 , 1,0 , 10 und 25 µg/ml des Gesamtvolumens hinzugefügt. […]

As for `CC1=NN(CCOc2ccc3ccccc3c2)C(=O)C1` [3-Methyl-1-[2-(2-naphthyloxy)-ethyl]-2-pyrazolin-5-on], the “DNS-Synthese (3H-Thymidinaufnahme)” value is “konzentrationsabhängige Abnahme der DNS-Synthese”.

For the origin of these results see patent EP0062319A1, “3-Methyl-1-(2-(3-naphthyloxy)-ethyl)-2-pyrazolin-5-one for the treatment of the metastasis and growth of tumour cells” (BAYER AG, priority 1981, dated 1982).
